PubChem BioAssay (NCI)
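A five-concentration, 48-hour dose response in 96-well plates underlies each endpoint, interpolated linearly between surrounding concentrations. GI50 = concentration required for 50% inhibition of growth. TGI denotes the concentration required for complete inhibition of growth.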

Assays:
Experiment in all cases: NCI anticancer screen, dose series, 48 h
HL-60(TB) leukemia = system: HL-60(TB) leukemia
SK-MEL-5 melanoma = system: SK-MEL-5 melanoma
PC-3 prostate = system: PC-3 prostate
MDA-MB-231 breast = system: MDA-MB-231 breast
UO-31 renal = system: UO-31 renal
MALME-3M melanoma = system: MALME-3M melanoma
K-562 leukemia = system: K-562 leukemia
RXF 393 renal = system: RXF 393 renal
BT-549 breast = system: BT-549 breast
NCI-H460 lung = system: NCI-H460 lung
KM12 colon = system: KM12 colon
SK-OV-3 ovarian = system: SK-OV-3 ovarian
MOLT-4 leukemia = system: MOLT-4 leukemia
IGROV1 ovarian = system: IGROV1 ovarian
T-47D breast = system: T-47D breast
OVCAR-4 ovarian = system: OVCAR-4 ovarian
786-0 renal = system: 786-0 renal
SR leukemia = system: SR leukemia
A549 NSCLC = system: A549 NSCLC
SK-MEL-28 melanoma = system: SK-MEL-28 melanoma
TK-10 renal = system: TK-10 renal
RPMI-8226 leukemia = system: RPMI-8226 leukemia
SNB-75 CNS = system: SNB-75 CNS
MCF7 breast = system: MCF7 breast
EKVX NSCLC = system: EKVX NSCLC
CCRF-CEM leukemia = system: CCRF-CEM leukemia
SN12C renal = system: SN12C renal
HOP-62 NSCLC = system: HOP-62 NSCLC
SK-MEL-2 melanoma = system: SK-MEL-2 melanoma
OVCAR-8 ovarian = system: OVCAR-8 ovarian
SW-620 colon = system: SW-620 colon
SNB-19 CNS = system: SNB-19 CNS
LOX IMVI melanoma = system: LOX IMVI melanoma
U251 CNS = system: U251 CNS
SF-295 CNS = system: SF-295 CNS
M14 melanoma = system: M14 melanoma
HCT-116 colon = system: HCT-116 colon
HT29 colon = system: HT29 colon
COLO 205 colon = system: COLO 205 colon
HOP-92 NSCLC = system: HOP-92 NSCLC
NCI-H23 lung = system: NCI-H23 lung
OVCAR-3 ovarian = system: OVCAR-3 ovarian
ACHN renal = system: ACHN renal
DU-145 prostate = system: DU-145 prostate
UACC-62 melanoma = system: UACC-62 melanoma
HCT-15 colon = system: HCT-15 colon
MDA-MB-435 = system: MDA-MB-435
SF-268 CNS = system: SF-268 CNS
CAKI-1 renal = system: CAKI-1 renal

## CC1=C(C(=O)Nc2ccc(Cl)c(Cl)c2)C(c2cccc(Cl)c2)NC(=S)N1 (stereo not drawn)
HL-60(TB) leukemia
  GI50: 16.5 µM
  TGI: 45.5 µM
SK-MEL-5 melanoma
  GI50: 2 µM
  TGI: 4.32 µM
PC-3 prostate
  GI50: 14.1 µM
  TGI: > 50 µM
MDA-MB-231 breast
  GI50: 8.15 µM
  TGI: 19.3 µM
UO-31 renal
  GI50: 11.1 µM
  TGI: 24.9 µM
MALME-3M melanoma
  GI50: 10.9 µM
  TGI: 29.8 µM
K-562 leukemia
  GI50: 19.7 µM
  TGI: > 50 µM
RXF 393 renal
  GI50: 9.63 µM
  TGI: 23.6 µM
BT-549 breast
  GI50: 16.4 µM
  TGI: 38.6 µM
NCI-H460 lung
  GI50: 24.3 µM
  TGI: > 50 µM
KM12 colon
  GI50: 11.6 µM
  TGI: 37.6 µM
SK-OV-3 ovarian
  GI50: 15.2 µM
  TGI: 33 µM
MOLT-4 leukemia
  GI50: 23.2 µM
  TGI: > 50 µM
IGROV1 ovarian
  GI50: 8.83 µM
  TGI: 35 µM
T-47D breast
  GI50: 31.5 µM
  TGI: > 50 µM
OVCAR-4 ovarian
  GI50: 13.4 µM
  TGI: 42.5 µM
786-0 renal
  GI50: 8.79 µM
  TGI: 18.3 µM
SR leukemia
  GI50: 17.1 µM
  TGI: > 50 µM
A549 NSCLC
  GI50: 11.2 µM
  TGI: 48.3 µM
SK-MEL-28 melanoma
  GI50: 15.6 µM
  TGI: > 50 µM
TK-10 renal
  GI50: 17.7 µM
  TGI: > 50 µM
RPMI-8226 leukemia
  GI50: 23 µM
  TGI: > 50 µM
SNB-75 CNS
  GI50: 30.4 µM
  TGI: > 50 µM
MCF7 breast
  GI50: > 50 µM
  TGI: > 50 µM
EKVX NSCLC
  GI50: 12.2 µM
  TGI: 28.8 µM
CCRF-CEM leukemia
  GI50: 30.5 µM
  TGI: > 50 µM
SN12C renal
  GI50: 8.4 µM
  TGI: 18.3 µM
HOP-62 NSCLC
  GI50: 10.3 µM
  TGI: 19.2 µM
SK-MEL-2 melanoma
  GI50: 14.5 µM
  TGI: 27.1 µM
OVCAR-8 ovarian
  GI50: 12.4 µM
  TGI: 31.7 µM
SW-620 colon
  GI50: 15.6 µM
  TGI: 36.1 µM
SNB-19 CNS
  GI50: 10.5 µM
  TGI: 24.9 µM
LOX IMVI melanoma
  GI50: 12.8 µM
  TGI: > 50 µM
U251 CNS
  GI50: 10.7 µM
  TGI: 29.6 µM
SF-295 CNS
  GI50: 17.4 µM
  TGI: > 50 µM
M14 melanoma
  GI50: 9.75 µM
  TGI: 20.2 µM
HCT-116 colon
  GI50: 7.75 µM
  TGI: 21.5 µM
HT29 colon
  GI50: 16.1 µM
  TGI: > 50 µM
COLO 205 colon
  GI50: 17.4 µM
  TGI: > 50 µM
HOP-92 NSCLC
  GI50: 14.2 µM
  TGI: > 50 µM
NCI-H23 lung
  GI50: 9.79 µM
  TGI: 20.9 µM
OVCAR-3 ovarian
  GI50: 10.5 µM
  TGI: 37.5 µM
ACHN renal
  GI50: 12.4 µM
  TGI: 37.1 µM
DU-145 prostate
  GI50: 14.4 µM
  TGI: 44 µM
UACC-62 melanoma
  GI50: 8.1 µM
  TGI: 18.1 µM
HCT-15 colon
  GI50: 15.1 µM
  TGI: > 50 µM
MDA-MB-435
  GI50: 14 µM
  TGI: 45.1 µM
SF-268 CNS
  GI50: 16.5 µM
  TGI: 41.8 µM
CAKI-1 renal
  GI50: 14.2 µM
  TGI: > 50 µM
